Measurements as given in US11318167B2, “Isolation of fusion-competent myoblasts and therapeutic applications thereof related to muscular dystrophy” (THE JOHNS HOPKINS UNIVERSITY, priority 2015, dated 2022).

B1: BMP4: BMP4 protein added to the culture media (protein, UniProt P12644 293-408, looked up)
Bone morphogenetic protein 4: SPKHHSQRARKKNKNCRRHSLYVDFSDVGWNDWIVAPPGYQAFYCHGDCPFPLADHLNSTNHAIVQTLVNSVNSSIPKACCVPTELSAISMLYLDEYDKVVLKNYQEMVVEGCGCR

What was measured:
[1] = test system: MESOGENIN1::eGFP reporter human embryonic stem cell (hESC) line; experiment: MESOGENIN1::eGFP reporter hESC line, pre-somite mesoderm induction (day 4); assay type: cell-based
From the text: The present invention was created through a number of discoveries. First, to harness the potential of hPSCs, a protocol to direct hPSCs into the skeletal muscle lineage was developed. As the somite is an intermediate stage between hPSCs and myogenic progenitor cells (Bentzinger et al, 2012; Dequeant and Pourquie, 2008) (FIG. 6A), a MESOGENIN1::eGFP reporter human embryonic stem cell (hESC) line was generated with the CRISPR/Cas9 system (Mali et al, 2013) (FIG. 6B-6D), because MESOGENIN1 is a genetic marker for the pre-somite mesoderm fate (Fior et al., 2012). […] For myogenic differentiation, hESCs/hiPSCs were rendered to single cells using Accutase® solution, and plated on gelatin for 10 minutes to remove MEFs. Non-adherent cells were collected and plated on Geltrex™ treated dishes, at a density of 1.5×10^5 cells per well of a 24-well plate, in the presence of MEF-conditioned N2 media containing 10 ng/ml of FGF-2 and 10 μM of Y-27632 (Cayman Chemical Co.) (day 0). The N2 medium, described in detail, contains DMEM/F12 powder, glucose, sodium bicarbonate, insulin, putrescine, progesterone, sodium selenite, and transferrin. From the next day (day 1), media was changed at every other day. BIO (30 nM-250 nM), lithium chloride (20 μM-20 mM), Kenpallone (1 μM-10 μM), SB 216763 (1 μM-10 μM), WNT-1 (10 ng/ml-100 ng/ml), WNT-3A (10 ng/ml-100 ng/ml), WNT-7A (10 ng/ml-100 ng/ml), SBE13 hydrochloride (0.1 nM-10 μM), and OTSSP167 hydrochloride (0.1 nM-10 nM) were tested during day 1 to day 4, as well as during day 4 to day 8. Final concentrations of CHIR99021 and DAPT treatment are 3 μM and 10 μM, respectively.

[2] = test system: canonical WNT signaling pathway; experiment: β-catenin translocation into the nucleus (canonical WNT signaling); assay type: cell-based, human
From the text: The present invention was created through a number of discoveries. First, to harness the potential of hPSCs, a protocol to direct hPSCs into the skeletal muscle lineage was developed. As the somite is an intermediate stage between hPSCs and myogenic progenitor cells (Bentzinger et al, 2012; Dequeant and Pourquie, 2008) (FIG. 6A), a MESOGENIN1::eGFP reporter human embryonic stem cell (hESC) line was generated with the CRISPR/Cas9 system (Mali et al, 2013) (FIG. 6B-6D), because MESOGENIN1 is a genetic marker for the pre-somite mesoderm fate (Fior et al., 2012).

[3] = test system: control hiPSC-derived myoblasts; experiment: Effect of DMD-myoblast conditioned media / BMP4 on control hiPSC-derived myoblasts; assay type: cell-based, human; conditions: BMP4 four concentrations, 7.5 μg/ml to 25 μg/ml; compared with inhibitive effect of DMD-myoblast CM
Description: FIG. 10A-10D is related to FIG. 5 and illustrates the effect of BMP4 on myoblasts and its pharmacological rescue. (A) Increased level of BMP4 expression in DMD-myoblasts than control myoblasts. (B-C) Inhibitive effect of conditioned media (CM, harvested after 24 hr incubation) from DMD-myoblasts on fusion index (B), and MYOG, and MYOD1 expression (C) of control hiPSC-derived myoblasts. […] (D) The decreased fusion index in DMD-CM-treated myoblasts was rescued by ‘dual SMAD inhibition’ compounds. (*, P≤0.05; ***, P≤0.001; ****, P≤0.0001, One-way ANOVA followed by Newman-Keuls test). n=3-5. All values represent means and s.d.
To find pharmacological rescue of the in vitro phenotypes, aberrant BMP and TGFβ signaling indicated by increased nuclear localization of pSMAD proteins in DMD-myoblasts (FIG. 3C-3D) was studied. Increased levels of BMP4 in the conditioned media (CM) of DMD-myoblasts (FIG. 10A) was detected. […] The effect of CM of DMD-myoblasts was reproduced by treatment with BMP4 protein in the culture media, which was reversed by treatment with ‘dual-SMAD’ inhibition compounds (FIG. 10D) (LDN+SB: LDN193189 and SB431542).

Molecule	expression of MESOGENIN1::eGFP (cells out of total cells in a dish) ([1]; brief treatment 4 days after day 0, read at day 4, final concentration 3 μM) [%]	expression of TBX6 (positive cells) ([1]; brief treatment 4 days, read at day 4) [%]	expression of PAX3 ([1]; brief treatment 4 days, read at day 4, dose-dependent manner)	β-catenin translocation into the nucleus [2]	MYOG and MYOD1 expression of control hiPSC-derived myoblasts [3]	fusion index of control hiPSC-derived myoblasts [3]
Cc1c[nH]c(-c2cnc(NCCNc3ccc(C#N)cn3)nc2-c2ccc(Cl)cc2Cl)n1.Cl [CHIR99021]	80.8±11.3	67.4±10.4	significantly increased expression	β-catenin translocation into the nucleus		
B1					recapitulated the effect of CM of DMD-myoblasts	recapitulated the effect of CM of DMD-myoblasts
